In patent US7786109B2, “Tricyclic amide derivatives as modulators of H3 receptors” (Hoffmann-La Roche Inc., priority 2005, dated 2010) one finds Ki data, which are given here for three molecules.

For the experiment, the target named is T1, histamine 3 receptor (H3R) (Homo sapiens, UniProt Q9Y5N1).
T1 construct: expressed in transfected cells; host or cells: CHO cells (HR3-CHO cell line), membranes
Kind of experiment: Binding assay with 3H-(R)α-methylhistamine (competition binding, membranes of the human HR3-CHO cell line). As to conditions: competition against 3H(R)α-Methylhistamine (1 nM), Ki calculated from IC50 by Cheng-Prusoff. The procedure:
Binding assay with ^3H—(R)α-methylhistamine
Saturation binding experiments were performed using HR3-CHO membranes prepared as described in Takahashi, K, Tokita, S., Kotani, H. (2003) J. Pharmacol. Exp. Therapeutics 307, 213-218.
An appropriate amount of membrane (60 to 80 μg protein/well) was incubated with increasing concentrations of ^3H(R)α-Methylhistamine di-hydrochloride (0.10 to 10 nM). Non specific binding was determined using a 200 fold excess of cold (R)α-Methylhistamine dihydrobromide (500 nM final concentration). The incubation was carried out at room temperature (in deep-well plates shaking for three hours). The final volume in each well was 250 μl. The incubation was followed by rapid filtration on GF/B filters (pre-soaked with 100 μl of 0.5% PEI in Tris 50 mM shaking at 200 rpm for two hours). The filtration was made using a cell-harvester and the filter plates were then washed five times with ice cold washing buffer containing 0.5 M NaCl. After harvesting, the plates were dried at 55° C. for 60 min, then we added scintillation fluid (Microscint 40, 40 microl in each well) and the amount of radioactivity on the filter was determined in Packard top-counter after shaking the plates for two hours at 200 rpm at room temperature.
Binding Buffer: 50 mM Tris-HCl pH 7.4 and 5 mM MgCl2×6H2O pH 7.4. Washing Buffer: 50 mM Tris-HCl pH 7.4 and 5 mM MgCl2×6H2O and 0.5 M NaCl pH 7.4.
Indirect measurement of affinity of H3R inverse agonists: twelve increasing concentrations (ranging from 10 μM to 0.3 nM) of the selected compounds were always tested in competition binding experiments using membrane of the human HR3-CHO cell line. An appropriate amount of protein, e.g. approximately 500 cpm binding of RAMH at Kd, were incubated for 1 hour at room temperature in 250 μl final volume in 96-well plates in presence of ^3H(R)α-Methylhistamine (1 nM final concentration=Kd). […]
All compounds were tested at a single concentration in duplicates. […] Ki's were calculated from IC50 based on Cheng-Prusoff equation (Cheng, Y, Prusoff, W H (1973) Biochem Pharmacol 22, 3099-3108).

T1 sequence (Q9Y5N1 whole entry): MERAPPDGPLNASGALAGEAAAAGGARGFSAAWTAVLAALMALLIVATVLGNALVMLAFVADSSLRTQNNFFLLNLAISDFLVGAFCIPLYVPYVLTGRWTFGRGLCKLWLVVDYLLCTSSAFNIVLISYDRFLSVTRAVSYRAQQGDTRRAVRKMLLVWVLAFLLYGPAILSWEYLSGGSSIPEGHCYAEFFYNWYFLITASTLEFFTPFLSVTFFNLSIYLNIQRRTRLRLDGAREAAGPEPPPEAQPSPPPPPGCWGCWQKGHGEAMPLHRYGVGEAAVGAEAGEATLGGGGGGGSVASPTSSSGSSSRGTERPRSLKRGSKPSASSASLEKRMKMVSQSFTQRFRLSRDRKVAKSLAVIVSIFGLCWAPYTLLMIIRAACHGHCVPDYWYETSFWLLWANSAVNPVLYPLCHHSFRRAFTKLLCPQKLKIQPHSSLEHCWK

Turning to `CC(C)N1CCC(Oc2ccc3c(c2)cc2n3CCCN(CC3CC3)C2=O)CC1` [Example 78, 2-Cyclopropylmethyl-9-(1-isopropyl-piperidin-4-yloxy)-2,3,4,5-tetrahydro-[1,4]diazepino[1,2-a]indol-1-one], the Ki (commonly a dissociation constant, usually derived from enzyme kinetics or from competition with a known ligand) is 17.1 nM.
In the case of `C[C@@H]1CCCN1CCCOc1ccc2c(c1)cc1n2CCNC1=O` [Example 5, 8-[3-((R)-2-Methyl-pyrrolidin-1-yl)-propoxy]-3,4-dihydro-2H-pyrazino[1,2-a]indol-1-one], the Ki is 6.5 nM.
Then `C[C@H]1CCCN1CCCOc1cnc2c(c1)cc1n2CCN(CC(F)(F)F)C1=O` [Example 92, 7-[3-((S)-2-Methyl-pyrrolidin-1-yl)-propoxy]-2-(2,2,2-trifluoro-ethyl)-3,4-dihydro-2H-2,4a,5-triaza-fluoren-1-one], with 28.8 nM.
